Measured values: ChEMBL document CHEMBL1155237, “Selective inhibitors of the mutant B-Raf pathway: discovery of a potent and orally bioavailable aminoisoquinoline” (J Med Chem, 2009)

How the values were obtained:
[1] = Elimination half life in CD1 mouse; type: ADME, organism-based; settings: in vivo, read-out: beta t1/2 (converted)
[2] = target: Serine/threonine-protein kinase MRCK alpha (Homo sapiens) (UniProt Q5VT25); experiment: Inhibition of MRCKA assessed as enzyme activity at 1 uM relative to untreated control; parameters: scale not given: the % may be the effect or the level left
[3] = target: Muscle, skeletal receptor tyrosine-protein kinase (Homo sapiens) (UniProt O15146); experiment: Inhibition of MUSK assessed as enzyme activity at 1 uM relative to untreated control; parameters: scale not given: the % may be the effect or the level left
[4] = target: Serine/threonine-protein kinase Nek7 (Homo sapiens) (UniProt Q8TDX7); experiment: Inhibition of NEK7 assessed as enzyme activity at 1 uM relative to untreated control; parameters: scale not given: the % may be the effect or the level left
[5] = target: Mitogen-activated protein kinase 11 (Homo sapiens) (UniProt Q15759); experiment: Inhibition of p38beta assessed as enzyme activity at 1 uM relative to untreated control; parameters: scale not given: the % may be the effect or the level left
[6] = target: Mitogen-activated protein kinase 12 (Homo sapiens) (UniProt P53778); experiment: Inhibition of p38-gamma assessed as enzyme activity at 1 uM relative to untreated control; parameters: scale not given: the % may be the effect or the level left
[7] = target: Calcium/calmodulin-dependent protein kinase type IV (Homo sapiens) (UniProt Q16566); experiment: Inhibition of CAMK4 assessed as enzyme activity at 1 uM relative to untreated control; parameters: scale not given: the % may be the effect or the level left
[8] = target: Cyclin-dependent kinase 11B (Homo sapiens) (UniProt P21127); experiment: Inhibition of CDC2L1 assessed as enzyme activity at 1 uM relative to untreated control; parameters: scale not given: the % may be the effect or the level left
[9] = target: Serine/threonine-protein kinase Chk1 (Homo sapiens) (UniProt O14757); experiment: Inhibition of CHEK1 assessed as enzyme activity at 1 uM relative to untreated control; parameters: scale not given: the % may be the effect or the level left
[10] = target: Casein kinase I isoform gamma-2 (Homo sapiens) (UniProt P78368); experiment: Inhibition of CSNK1G2 assessed as enzyme activity at 1 uM relative to untreated control; parameters: scale not given: the % may be the effect or the level left
[11] = system: Proto-oncogene tyrosine-protein kinase receptor Ret (Homo sapiens), P07949 [V804M]; experiment: Inhibition of RET V804M mutant assessed as enzyme activity at 1 uM relative to untreated control; parameters: scale not given: the % may be the effect or the level left
[12] = target: Ribosomal protein S6 kinase alpha-6 (Homo sapiens) (UniProt Q9UK32); experiment: Inhibition of RPS6KA6 kinase domain 2 assessed as enzyme activity at 1 uM relative to untreated control; parameters: scale not given: the % may be the effect or the level left
[13] = target: Receptor tyrosine-protein kinase erbB-2 (Homo sapiens) (UniProt P04626); experiment: Inhibition of ERBB2 assessed as enzyme activity at 1 uM relative to untreated control; parameters: scale not given: the % may be the effect or the level left
[14] = target: Tyrosine-protein kinase Fes/Fps (Homo sapiens) (UniProt P07332); experiment: Inhibition of FES assessed as enzyme activity at 1 uM relative to untreated control; parameters: scale not given: the % may be the effect or the level left
[15] = system: Receptor-type tyrosine-protein kinase FLT3 (Homo sapiens), P36888 [K663Q]; experiment: Inhibition of FLT3 K663Q mutant assessed as enzyme activity at 1 uM relative to untreated control; parameters: scale not given: the % may be the effect or the level left
[16] = target: Cyclin-G-associated kinase (Homo sapiens) (UniProt O14976); experiment: Inhibition of GAK assessed as enzyme activity at 1 uM relative to untreated control; parameters: scale not given: the % may be the effect or the level left
[17] = target: Casein kinase II subunit alpha' (Homo sapiens) (UniProt P19784); experiment: Inhibition of CSNK2A2 assessed as enzyme activity at 1 uM relative to untreated control; parameters: scale not given: the % may be the effect or the level left
[18] = target: Discoidin domain-containing receptor 2 (Homo sapiens) (UniProt Q16832); experiment: Inhibition of DDR2 assessed as enzyme activity at 1 uM relative to untreated control; parameters: scale not given: the % may be the effect or the level left
[19] = target: Epidermal growth factor receptor (Homo sapiens) (UniProt P00533); experiment: Inhibition of EGFR assessed as enzyme activity at 1 uM relative to untreated control; parameters: scale not given: the % may be the effect or the level left
[20] = system: Epidermal growth factor receptor (Homo sapiens), P00533 [G719S]; experiment: Inhibition of EGFR G719S mutant assessed as enzyme activity at 1 uM relative to untreated control; type: protein assay; parameters: scale not given: the % may be the effect or the level left
[21] = target: Epidermal growth factor receptor (Homo sapiens) (UniProt P04626+P00533+Q15303+P21860); experiment: Inhibition of EGFR L747-T751del,Sins mutant assessed as enzyme activity at 1 uM relative to untreated control; type: protein assay; parameters: scale not given: the % may be the effect or the level left
[22] = system: Epidermal growth factor receptor (Homo sapiens), P00533 [L858R]; experiment: Inhibition of EGFR L858R mutant assessed as enzyme activity at 1 uM relative to untreated control; type: protein assay; parameters: scale not given: the % may be the effect or the level left
[23] = target: SRSF protein kinase 3 (Homo sapiens) (UniProt Q9UPE1); experiment: Inhibition of SRPK3 assessed as enzyme activity at 1 uM relative to untreated control; parameters: scale not given: the % may be the effect or the level left
Mus musculus = experiment: Inhibition of ERK phosphorylation in human A375 SQ2 cells xenografted CD1 mouse at 5 mg/kg, po qd after 6 hrs; type: functional; settings: CD1, A375-SQ2, 6 h
A-375 = experiment: Antitumor activity against human A375 SQ2 cells xenografted in CD1 mouse assessed as inhibition of tumor growth at 1 mg/kg, po qd for 14 days; type: functional; settings: A-375, 336 h
[24] = target: Tyrosine-protein kinase ABL1 (Homo sapiens) (UniProt P00519); experiment: Inhibition of ABL1 assessed as enzyme activity at 1 uM relative to untreated control; parameters: scale not given: the % may be the effect or the level left
[25] = system: Tyrosine-protein kinase ABL1 (Homo sapiens), P00519 [Q252H]; experiment: Inhibition of ABL1 Q252H mutant assessed as enzyme activity at 1 uM relative to untreated control; parameters: scale not given: the % may be the effect or the level left
[26] = target: Activin receptor type-2B (Homo sapiens) (UniProt Q13705); experiment: Inhibition of ACVR2B assessed as enzyme activity at 1 uM relative to untreated control; parameters: scale not given: the % may be the effect or the level left
[27] = system: Phosphatidylinositol 4,5-bisphosphate 3-kinase catalytic subunit alpha isoform (Homo sapiens), P42336 [E545K]; experiment: Inhibition of PIK3CA E545K mutant assessed as enzyme activity at 1 uM relative to untreated control; parameters: scale not given: the % may be the effect or the level left
[28] = target: Serine/threonine-protein kinase D1 (Homo sapiens) (UniProt Q15139); experiment: Inhibition of PRKD1 assessed as enzyme activity at 1 uM relative to untreated control; parameters: scale not given: the % may be the effect or the level left
[29] = target: Serine/threonine-protein kinase TAO1 (Homo sapiens) (UniProt Q7L7X3); experiment: Inhibition of TAOK1 assessed as enzyme activity at 1 uM relative to untreated control; parameters: scale not given: the % may be the effect or the level left
[30] = target: TGF-beta receptor type-2 (Homo sapiens) (UniProt P37173); experiment: Inhibition of TGFBR2 assessed as enzyme activity at 1 uM relative to untreated control; parameters: scale not given: the % may be the effect or the level left
[31] = target: Tyrosine-protein kinase receptor Tie-1 (Homo sapiens) (UniProt P35590); experiment: Inhibition of TIE1 assessed as enzyme activity at 1 uM relative to untreated control; parameters: scale not given: the % may be the effect or the level left
[32] = target: Non-receptor tyrosine-protein kinase TNK1 (Homo sapiens) (UniProt Q13470); experiment: Inhibition of TNK1 assessed as enzyme activity at 1 uM relative to untreated control; parameters: scale not given: the % may be the effect or the level left
[33] = target: Serine/threonine-protein kinase 32B (Homo sapiens) (UniProt Q9NY57); experiment: Inhibition of YANK2 assessed as enzyme activity at 1 uM relative to untreated control; parameters: scale not given: the % may be the effect or the level left
[34] = target: Tyrosine-protein kinase Yes (Homo sapiens) (UniProt P07947); experiment: Inhibition of YES assessed as enzyme activity at 1 uM relative to untreated control; parameters: scale not given: the % may be the effect or the level left
[35] = target: Mitogen-activated protein kinase kinase kinase 20 (Homo sapiens) (UniProt Q9NYL2); experiment: Inhibition of ZAK assessed as enzyme activity at 1 uM relative to untreated control; parameters: scale not given: the % may be the effect or the level left

Cyclin-G-associated kinase (Homo sapiens), sequence (O14976 whole entry): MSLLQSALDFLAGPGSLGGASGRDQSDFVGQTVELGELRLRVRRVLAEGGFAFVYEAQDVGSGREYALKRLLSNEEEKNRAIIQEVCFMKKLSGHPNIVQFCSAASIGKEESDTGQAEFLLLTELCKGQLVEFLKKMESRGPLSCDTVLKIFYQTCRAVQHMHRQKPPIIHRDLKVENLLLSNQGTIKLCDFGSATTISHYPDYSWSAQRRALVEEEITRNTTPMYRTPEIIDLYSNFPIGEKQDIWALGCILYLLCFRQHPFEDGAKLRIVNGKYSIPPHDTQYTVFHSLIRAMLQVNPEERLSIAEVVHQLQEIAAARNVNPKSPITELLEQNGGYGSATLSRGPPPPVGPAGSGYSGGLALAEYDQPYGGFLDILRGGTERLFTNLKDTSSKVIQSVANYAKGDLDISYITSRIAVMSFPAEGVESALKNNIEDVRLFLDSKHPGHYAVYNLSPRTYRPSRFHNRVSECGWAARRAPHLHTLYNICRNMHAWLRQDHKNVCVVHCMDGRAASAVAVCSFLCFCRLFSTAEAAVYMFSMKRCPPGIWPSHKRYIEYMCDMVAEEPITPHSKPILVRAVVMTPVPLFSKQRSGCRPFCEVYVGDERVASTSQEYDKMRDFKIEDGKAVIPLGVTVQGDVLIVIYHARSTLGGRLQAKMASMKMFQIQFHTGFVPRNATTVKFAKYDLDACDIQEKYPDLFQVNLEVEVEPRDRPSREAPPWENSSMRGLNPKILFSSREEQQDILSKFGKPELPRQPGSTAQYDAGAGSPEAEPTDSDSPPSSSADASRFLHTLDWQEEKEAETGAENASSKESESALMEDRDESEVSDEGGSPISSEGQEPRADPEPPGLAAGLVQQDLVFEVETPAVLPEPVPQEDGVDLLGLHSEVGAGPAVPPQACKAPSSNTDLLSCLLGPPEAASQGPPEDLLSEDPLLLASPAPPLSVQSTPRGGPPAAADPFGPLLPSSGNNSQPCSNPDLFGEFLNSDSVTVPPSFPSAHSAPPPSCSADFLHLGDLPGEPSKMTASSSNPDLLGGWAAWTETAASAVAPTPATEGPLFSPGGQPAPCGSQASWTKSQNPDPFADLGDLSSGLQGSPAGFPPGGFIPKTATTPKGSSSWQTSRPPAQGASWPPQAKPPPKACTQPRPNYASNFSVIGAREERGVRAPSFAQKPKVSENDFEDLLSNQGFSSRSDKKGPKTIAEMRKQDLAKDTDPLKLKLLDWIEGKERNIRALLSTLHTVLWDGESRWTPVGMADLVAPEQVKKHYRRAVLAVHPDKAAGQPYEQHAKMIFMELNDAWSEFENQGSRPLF
Tyrosine-protein kinase Fes/Fps (Homo sapiens), sequence (P07332 whole entry): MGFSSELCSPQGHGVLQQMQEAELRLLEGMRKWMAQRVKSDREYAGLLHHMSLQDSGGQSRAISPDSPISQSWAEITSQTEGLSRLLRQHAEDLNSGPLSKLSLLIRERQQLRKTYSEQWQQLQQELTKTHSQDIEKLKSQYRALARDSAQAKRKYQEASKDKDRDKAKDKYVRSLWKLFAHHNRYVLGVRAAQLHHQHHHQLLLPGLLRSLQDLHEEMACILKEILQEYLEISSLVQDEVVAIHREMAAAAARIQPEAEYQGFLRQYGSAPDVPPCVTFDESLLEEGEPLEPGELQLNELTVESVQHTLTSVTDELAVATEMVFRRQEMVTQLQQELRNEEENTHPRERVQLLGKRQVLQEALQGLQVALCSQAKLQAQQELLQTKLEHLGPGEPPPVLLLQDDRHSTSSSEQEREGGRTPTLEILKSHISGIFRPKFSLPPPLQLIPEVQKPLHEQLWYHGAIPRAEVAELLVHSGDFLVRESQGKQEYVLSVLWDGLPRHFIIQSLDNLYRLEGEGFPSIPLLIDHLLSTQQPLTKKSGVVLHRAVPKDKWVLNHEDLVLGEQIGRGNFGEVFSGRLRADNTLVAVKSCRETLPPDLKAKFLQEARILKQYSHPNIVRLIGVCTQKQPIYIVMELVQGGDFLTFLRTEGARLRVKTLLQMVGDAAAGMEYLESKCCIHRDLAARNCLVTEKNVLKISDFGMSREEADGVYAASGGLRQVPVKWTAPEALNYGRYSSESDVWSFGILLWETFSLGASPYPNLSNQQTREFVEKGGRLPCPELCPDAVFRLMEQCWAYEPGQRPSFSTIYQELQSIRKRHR
Tyrosine-protein kinase receptor Tie-1 (Homo sapiens), sequence (P35590 whole entry): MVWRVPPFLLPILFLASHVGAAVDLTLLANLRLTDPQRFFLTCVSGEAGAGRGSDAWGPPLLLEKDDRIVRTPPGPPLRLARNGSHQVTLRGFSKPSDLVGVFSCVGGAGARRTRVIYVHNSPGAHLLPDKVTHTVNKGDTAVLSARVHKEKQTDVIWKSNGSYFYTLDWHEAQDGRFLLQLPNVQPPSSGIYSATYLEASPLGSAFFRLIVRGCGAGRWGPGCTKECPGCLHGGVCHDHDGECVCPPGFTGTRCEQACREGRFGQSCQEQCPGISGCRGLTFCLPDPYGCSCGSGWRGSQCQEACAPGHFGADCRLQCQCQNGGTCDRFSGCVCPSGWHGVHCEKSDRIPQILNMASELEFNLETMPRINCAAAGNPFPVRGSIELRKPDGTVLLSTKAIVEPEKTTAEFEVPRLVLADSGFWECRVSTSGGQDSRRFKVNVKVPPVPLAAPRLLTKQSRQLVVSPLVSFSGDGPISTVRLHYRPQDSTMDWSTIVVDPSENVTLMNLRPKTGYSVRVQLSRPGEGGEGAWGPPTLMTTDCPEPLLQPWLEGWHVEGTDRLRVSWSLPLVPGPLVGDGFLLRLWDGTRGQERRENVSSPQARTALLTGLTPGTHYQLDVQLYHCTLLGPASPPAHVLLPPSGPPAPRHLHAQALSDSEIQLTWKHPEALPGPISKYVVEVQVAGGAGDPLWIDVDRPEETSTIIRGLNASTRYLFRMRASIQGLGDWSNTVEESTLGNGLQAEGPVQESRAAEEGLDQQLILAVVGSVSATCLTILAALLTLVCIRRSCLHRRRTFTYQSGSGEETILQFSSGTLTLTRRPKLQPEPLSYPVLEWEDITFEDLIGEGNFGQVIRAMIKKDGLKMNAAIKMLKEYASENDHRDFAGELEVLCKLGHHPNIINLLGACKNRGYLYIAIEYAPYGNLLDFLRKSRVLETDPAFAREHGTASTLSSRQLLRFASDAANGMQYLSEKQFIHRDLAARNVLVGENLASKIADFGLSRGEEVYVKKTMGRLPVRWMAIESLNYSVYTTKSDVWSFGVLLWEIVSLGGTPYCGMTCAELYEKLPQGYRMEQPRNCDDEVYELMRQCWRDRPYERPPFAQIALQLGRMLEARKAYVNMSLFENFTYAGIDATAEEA
Ribosomal protein S6 kinase alpha-6 (Homo sapiens), sequence (Q9UK32 whole entry, the tested form may be a part): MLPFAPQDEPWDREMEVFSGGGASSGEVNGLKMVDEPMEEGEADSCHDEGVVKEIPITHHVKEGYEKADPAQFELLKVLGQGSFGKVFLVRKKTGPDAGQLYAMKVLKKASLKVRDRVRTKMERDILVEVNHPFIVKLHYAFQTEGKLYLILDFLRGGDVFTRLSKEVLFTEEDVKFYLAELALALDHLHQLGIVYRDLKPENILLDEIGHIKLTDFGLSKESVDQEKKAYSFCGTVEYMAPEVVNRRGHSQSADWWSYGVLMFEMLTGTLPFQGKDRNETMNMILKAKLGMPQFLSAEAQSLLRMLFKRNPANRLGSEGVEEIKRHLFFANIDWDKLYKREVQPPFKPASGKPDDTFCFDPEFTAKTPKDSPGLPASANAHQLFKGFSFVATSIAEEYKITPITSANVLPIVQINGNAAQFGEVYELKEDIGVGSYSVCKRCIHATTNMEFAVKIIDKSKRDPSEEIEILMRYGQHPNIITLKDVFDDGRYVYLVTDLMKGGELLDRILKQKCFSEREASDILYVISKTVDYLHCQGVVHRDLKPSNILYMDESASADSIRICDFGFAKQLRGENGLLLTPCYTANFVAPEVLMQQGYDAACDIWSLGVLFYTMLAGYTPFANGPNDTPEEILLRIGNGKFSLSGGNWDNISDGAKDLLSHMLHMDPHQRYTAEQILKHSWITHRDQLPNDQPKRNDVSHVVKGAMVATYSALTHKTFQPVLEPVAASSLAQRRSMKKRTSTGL
Casein kinase I isoform gamma-2 (Homo sapiens), sequence (P78368 whole entry, looked up, canonical isoform): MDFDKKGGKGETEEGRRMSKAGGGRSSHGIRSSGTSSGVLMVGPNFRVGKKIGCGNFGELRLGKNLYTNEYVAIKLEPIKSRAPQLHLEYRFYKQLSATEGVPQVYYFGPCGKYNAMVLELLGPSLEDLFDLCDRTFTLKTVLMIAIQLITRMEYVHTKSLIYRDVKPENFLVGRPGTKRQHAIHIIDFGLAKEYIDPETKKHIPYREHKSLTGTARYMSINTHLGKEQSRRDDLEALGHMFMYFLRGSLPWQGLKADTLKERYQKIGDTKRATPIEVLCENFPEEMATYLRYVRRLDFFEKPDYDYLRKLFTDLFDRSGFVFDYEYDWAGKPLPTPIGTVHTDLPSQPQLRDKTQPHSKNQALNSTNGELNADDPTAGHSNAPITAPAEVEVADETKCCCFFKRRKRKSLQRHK
Mitogen-activated protein kinase 11 (Homo sapiens), sequence (Q15759 whole entry): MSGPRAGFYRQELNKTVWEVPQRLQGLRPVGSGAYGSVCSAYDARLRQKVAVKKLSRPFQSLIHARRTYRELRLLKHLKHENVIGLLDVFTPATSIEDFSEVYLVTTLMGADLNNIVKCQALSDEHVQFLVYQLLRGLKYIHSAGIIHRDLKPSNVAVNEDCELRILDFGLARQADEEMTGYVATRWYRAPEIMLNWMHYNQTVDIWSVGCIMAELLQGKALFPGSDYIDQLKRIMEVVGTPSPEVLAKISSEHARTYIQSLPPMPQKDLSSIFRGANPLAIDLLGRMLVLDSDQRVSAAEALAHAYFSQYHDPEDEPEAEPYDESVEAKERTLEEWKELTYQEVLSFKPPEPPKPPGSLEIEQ

Compound: Cc1ccc2c(Nc3ccc(Cl)cc3)nccc2c1Nc1ncccc1-c1ncnc2[nH]cnc12.Cl.Cl.Cl
- half-life [1]: 3.3 h
- Activity [2]: 87%
- Activity [3]: 66%
- Activity [4]: 88%
- Activity [5]: 99%
- Activity [6]: 100%
- Activity [7]: 96%
- Activity [8]: 42%
- Activity [9]: 100%
- Activity [10]: 100%
- Activity [11]: 96%
- Activity [12]: 86%
- Activity [13]: 97%
- Activity [14]: 100%
- Activity [15]: 75%
- Activity [16]: 92%
- Activity [17]: 100%
- Activity [18]: 6.6%
- Activity [19]: 100%
- Activity [20]: 92%
- Activity [21]: 98%
- Activity [22]: 100%
- Activity [23]: 100%
- inhibition in vivo at 5 mg/kg (Mus musculus): 77%
- inhibition in vivo at 1 mg/kg (A-375): 22%
- Activity [24]: 51%
- Activity [25]: 71%
- Activity [26]: 100%
- Activity [27]: 100%
- Activity [28]: 100%
- Activity [29]: 88%
- Activity [30]: 100%
- Activity [31]: 4.9%
- Activity [32]: 100%
- Activity [33]: 95%
- Activity [34]: 52%
- Activity [35]: 87%
